Laboratory results: patent US7056491B2, “Monoterpenes and sesquiterpenes as chemotherapeutic and radiation sensitizers and immunomodulators” (Wisconsin Alumni Research Foundation, priority 2000, dated 2006)

Key:
[1] = tested on: MO59K cells; experiment: Clonogenic survival assay, POH with or without radiation, MO59K; type: cell-based, human; settings: for % SURVIVAL: MO59K
Protocol: Subconfluent cultures of human glioma cell line MO 59K were treated with 0.1–0.5 mM of POH for 72 hours and subsequently to increasing doses of radiation from 0.1 Gy to 8.5 Gy. Control cells were treated with the indicated doses of radiation alone. The cells were harvested and an optimum number of cells were allowed to grow for 14 days. The resulting colonies were stained and counted. Each graphed point represents mean values ± SE values of triplicate dishes.
Table 1 summarizing data from different cell lines treated with radiation, radiation plus POH, and POH alone. Subconfluent cultures of human glioma (T98G, M059K, U251), prostate (DU145, PC3), colon (DLD-1, HT29) and pancreatic (MIAPACA) cancer cell lines were treated with 0.1–0.5 mM of POH for 72 hours and subsequently to increasing doses of radiation from 0.1 Gy to 8.5 Gy. Control cells were treated with medium alone. The cells were harvested and an optimum number of cells were allowed to grow for 14 days. The resulting colonies were stained and counted. Each graphed point represents mean values ± SE values of triplicate dishes. Percentage survival was determined as the ratio of plating efficiencies for each irradiated group to that of the unirradiated control.

[2] = tested on: Fas Ligand; experiment: Membrane bound Fas ligand staining by flow cytometry; type: cell-based, human
Protocol: Referring to FIG. 17, glioma cell lines (T98G, U251, U87 and U353) were treated with 0.3 mM perillyl alcohol (POH) for 72 hours and the cells were harvested using cell dissociation solution. The resulting cell pellet was stained with biotinylated antibody specific to the human Fas-Ligand (Pharmingen), or IgG1 k isotype control for 45 minutes at 4° C. The cells were washed and incubated with streptavidin conjugated phycoerythrin washed and analyzed by flow cytometry.
The cells were harvested using cell dissociation solution, and the resulting cell pellet was washed and incubated with biotinylated anti-human antibody, which served as a control to eliminate non-specific binding. Following the primary antibody incubation the cells were washed and subsequently stained with secondary antibody conjugated to phycoerythrin (PE) (PharMingen) and antibody to CD95 directly conjugated to allophycocyanin (APC). The stained cells were analyzed using a Beckton-Dickinson FACStar plus and the results were acquired using CELLquest software.
Subconfluent cultures of the indicated glioma (T98G, U251, U353, U87MG), prostate (DU145, PC3), colon (DLD-1) and melanoma (Mel5) cell lines were treated with varying concentrations of POH (0.1 mM–1 mM POH) dissolved in medium for 72 hours. […] The stained cells were analyzed using a Beckton-Dickinson FACStar plus and the results were acquired using CELLquest. […]

[3] = rats, 2% POH diet for 10 weeks; cited from earlier work

C=C(C)[C@@H]1CC=C(CO)CC1 [POH, Perillyl alcohol]
radiosensitization ([1]; M059K, cells not initially radiation resistant, 0.1–0.5 mM POH 72 h): lack of radiosensitization | % SURVIVAL ([1]; 0.1 mM POH 72 h, no radiation): 0.939 ± 0.005% | % SURVIVAL ([1]; 0.1 mM POH + 5.5 Gy): 0.061 ± 0.007% | % SURVIVAL ([1]; 0.3 mM POH 72 h, no radiation): 0.660 ± 0.020% | % SURVIVAL ([1]; 0.3 mM POH + 5.5 Gy): 0.080 ± 0.015% | % SURVIVAL ([1]; 0.5 mM POH 72 h, no radiation): 0.623 ± 0.009% | % SURVIVAL ([1]; 0.5 mM POH + 5.5 Gy): 0.056 ± 0.006% | Fas Ligand in glioma, prostate, colon and melanoma cell lines ([2]; 0.1 mM–1 mM POH 72 hours, more pronounced at lower concentrations): upregulation of the Fas Ligand | membrane bound Fas ligand on glioma cell lines ([2]; T98G, U251, U87, U353, 0.3 mM POH 72 hours): upregulation | plasma levels of terpene metabolites [3]: 820 µM
